Test results reported in patent US7071206B2, “Agents for treating neurodegenerative disorders” (Medivation, Inc., priority 1995, dated 2006).

Test system: patients suffering from Alzheimer's disease
Test: Clinical trial of dimebon tablets, inventors' scale (E. E. Bukatina et al.; 0 = absence of a symptom, 4 = greatest manifestation)
Type: in vivo, human
Conditions: for mean value of delirium manifestations: 10 patients with delirious symptoms prior to treatment; for mean value of depressive manifestations: 12 patients with depressive manifestations
Procedure: The test was carried out under the direct supervision by two of the inventors, namely E. E. Bukatina and V. Grigorieva, in 14 patients who agreed to take part in the tests, 13 of whom lived in a boarding house for senile persons and one patient lived with their family.
Alzheimer's disease was diagnosed on the basis of criteria ICD-10 NINCDS ADRDA.
Dimebon in the form of tablets (comprising 10 mg of dimebon, 30 mg of lactose, 5 mg of magnesium stearate was prescribed for oral administration in a dose of 0.02 g three to times a day. The patients living in the boarding house received dimebon for 58 days. A patient (observation 14) who was under outpatient observation continued taking the agent for a month after the completion of the tests.
Before the treatment with dimebon, and at 4 and 8 weeks after treatment the patients were examined according to Hazegawa's scale and the inventors' scale (“Social and Clinical Psychiatry”, 1992, No.4, pp.29–37) which includes the following indexes: (1) orientation in locality, time, immediate surroundings and one's own personality; (2) orientation in space; (3) memory for the past; (4) memory for the present; (5) “life in the past”; (6) (a) articulation, (b) difficulty in finding words, and distortion of words; (c) naming of objects; (d) following instructions; (7) concentration (of attention); (8) an affective sphere; (a) high spirits, (b) low spirits; (9) delirium; (10) hearing hallucinations; (11) visual hallucinations; (12) senile or senile-like confusion (when motion anxiety is accompanied by the revival of the past experience); (13) irritability; (14) anxiety; (15) asthenia; (16) headaches; (17) dizziness; (18) tearfulness; (19) spontaneous activity; (20) elementary self-service; and (21 control of sphincters.
According to the Hazegawa's scale, the 0 score indicates the poorest result; on the contrary, according to the inventors' scale, the 0 score indicates the absence of a symptom 4 score indicates the greatest manifestation thereof. […] Before the therapy was started, the patients had been independently examined by two doctors who used the inventors' scale. The examination during the treatment was carried out by the doctors using both the scales. The evaluation according to all the inventors' scale points during all the tests and their variations during the treatment with dimebon are given in the Appendix.
According to the inventors' scale, the degree of the disturbance if the cognitive functions was determined by a sum of evaluations according to the first 5 scale points reflecting the condition of memory, orientation and relation with the reality. The disturbance of speech was dealt with separately and was determined by a sum of evaluations according to items 6b-6d.
Both absolute evaluations of the signs under investigation (the evaluation prior to treatment is a mean evaluation of the two examinations) and variations in them were analysed in the course of therapy. In doing so, only those changes that were beyond the range of evaluations obtained in two pre-treatment examinations were taken into consideration.
The test results reflected the condition of the patients at the time of the examination. Any changes in the metal state observed in the interval between the tests and disappearing by the moment of examination according to the scale were described in the section “Clinical Observations”.
The statistical data processing was carried out by means of Student's t-test and Fisher's “Fi” criterion.

[1] = after 4 weeks vs two examinations prior to treatment, + improvement, − deterioration
[2] = after 4 weeks, mean of 14 patients

Structure (SMILES): Cc1ccc2c(c1)c1c(n2CCc2ccc(C)nc2)CCN(C)C1 [No. 10, 2,8-dimethyl-5-[2-(6-methyl-3-pyridyl)ethyl]-2,3,4,5-tetrahydro-1H-pyrido[4,3-b]indole]
- Cognitive functions (first 5 scale points): no variations, % (4 weeks): 81.4%
- Cognitive functions (first 5 scale points): no variations, abs. (4 weeks): 57
- Cognitive functions: X (no variations in the function prior to and during the treatment), % (4 weeks): 7.1%
- Cognitive functions: X (no variations in the function prior to and during the treatment), abs. (4 weeks): 5
- Speech functions (items 6b, c, d): no variations, % (4 weeks): 54.8%
- Speech functions (items 6b, c, d): no variations, abs. (4 weeks): 23
- Speech functions: X (no variations in the function prior to and during the treatment), % (4 weeks): 33.3%
- Speech functions: X (no variations in the function prior to and during the treatment), abs. (4 weeks): 14
- Cognitive functions (first 5 scale points): no variations, % (8 weeks): 53.6%
- Cognitive functions (first 5 scale points): no variations, abs. (8 weeks): 41
- Cognitive functions: X (no variations in the function prior to and during the treatment), % (8 weeks): 7.1%
- Cognitive functions: X (no variations in the function prior to and during the treatment), abs. (8 weeks): 5
- Speech functions (items 6b, c, d): no variations, % (8 weeks): 45.2%
- Speech functions (items 6b, c, d): no variations, abs. (8 weeks): 19
- Speech functions: X (no variations in the function prior to and during the treatment), % (8 weeks): 30.95%
- Speech functions: X (no variations in the function prior to and during the treatment), abs. (8 weeks): 13
- mean value of delirium manifestations (4 weeks): 0.8±0.33
- mean value of delirium manifestations (8 weeks): 0.7±0.27
- mean value of depressive manifestations (after 4 weeks): 0.58±0.18 score
- mean value of depressive manifestations (after 8 weeks): 0.58±0.14 score
- cognitive functions (Hazegawa's scale and inventor's scale), conclusion (14 patients, especially patients with mild dementia): significant improvement in cognitive functions
- mean score of tearfulness (after 4 weeks): 0.2±0.18
- Item 1 (orientation in locality, time, immediate surroundings and one's own personality): change during the course of the therapy [1]: +0.11 +/− 0.07 scores
- Item 2 (orientation in space): change during the course of the therapy [1]: +0.11 +/− 0.07 scores
- Item 3 (memory for the past): change during the course of the therapy [1]: +0.07 +/− 0.07 scores
- Item 4 (memory for the present): change during the course of the therapy [1]: 0 +/− 0 scores
- Item 5 (life in the past): change during the course of the therapy [1]: +0.14 +/− 0.08 scores
- Item 6a (speech): change during the course of the therapy [1]: +0.11 +/− 0.07 scores
- Item 6b (difficulty in finding words, and distortion of words): change during the course of the therapy [1]: 0 +/− 0 scores
- Item 6g (speech): change during the course of the therapy [1]: −0.07 +/− 0.12 scores
- Item 7 (concentration of attention): change during the course of the therapy [1]: 0 +/− 0.5 scores
- Item 8b (low spirits): change during the course of the therapy [1]: +0.41 +/− 0.17 scores
- Item 9 (delirium): change during the course of the therapy [1]: +0.07 +/− 0.09 scores
- Item 13 (irritability): change during the course of the therapy [1]: +0.29 +/− 0.13 scores
- Item 14 (anxiety): change during the course of the therapy [1]: −0.04 +/− 0.13 scores
- Item 15 (asthenia): change during the course of the therapy [1]: −0.11 +/− 0.09 scores
- Item 16 (headaches): change during the course of the therapy [1]: +0.54 +/− 0.21 scores
- Item 17 (dizziness): change during the course of the therapy [1]: −0.14 +/− 0.17 scores
- Item 18 (tearfulness): change during the course of the therapy [1]: −0.14 +/− 0.14 scores
- Item 19 (spontaneous activity): change during the course of the therapy [1]: 0 +/− 0 scores
- Item 20 (elementary self-service): change during the course of the therapy [1]: +0.07 +/− 0.07 scores
- Item 1 (orientation in locality, time, immediate surroundings and one's own personality): mean value [2]: 1.75 +/− 0.23 scores
- Item 2 (orientation in space): mean value [2]: 0.32 +/− 0.15 scores
- Item 3 (memory for the past): mean value [2]: 2.29 +/− 0.21 scores
- Item 4 (memory for the present): mean value [2]: 2.21 +/− 0.22 scores
- Item 5 (life in the past): mean value [2]: 1.75 +/− 0.27 scores
- Item 6a (speech): mean value [2]: 0.71 +/− 0.21 scores
- Item 6b (difficulty in finding words, and distortion of words): mean value [2]: 0.43 +/− 0.17 scores
- Item 6g (speech): mean value [2]: 0.46 +/− 0.16 scores
- Item 7 (concentration of attention): mean value [2]: 1.75 +/− 0.26 scores
- Item 8b (low spirits): mean value [2]: 0.5 +/− 0.16 scores
- Item 9 (delirium): mean value [2]: 0.57 +/− 0.29 scores
- Item 13 (irritability): mean value [2]: 0.21 +/− 0.15 scores
- Item 14 (anxiety): mean value [2]: 0.29 +/− 0.12 scores
- Item 15 (asthenia): mean value [2]: 0.18 +/− 0.1 scores
- Item 16 (headaches): mean value [2]: 0.32 +/− 0.21 scores
- Item 17 (dizziness): mean value [2]: 0.71 +/− 0.27 scores
- Item 18 (tearfulness): mean value [2]: 0.07 +/− 0.07 scores
- Item 19 (spontaneous activity): mean value [2]: 1.29 +/− 0.22 scores
